Test results published in patent US20170260285A1, “METHODS FOR TREATING CANCER” (UNIVERSITY OF IOWA RESEARCH FOUNDATION, priority 2014, published 2017).
Entries after “also recorded” stand apart in the source; their conditions may differ.

Assays:
HNSCC tumor cell lines = details: previous studies (ref. 10); cited from earlier work
SQ20B HNSCC cells [1] = assay: IL-6 secretion by ELISA in SQ20B cells; type: cell-based, human; details: for erlotinib-induced IL-6: agent pre-treatment then erlotinib 5 μM 48 h; for baseline IL-6 (absence of erlotinib): agent 2 h (1 h for caspase inhibitors, NAC, CAT) then DMSO 48 h
From the text: (§1) Cal-27 and FaDu human head and neck squamous carcinoma (HNSCC) cells were obtained from the American Type Culture Collection (ATCC, Manassas, Va.). SQ20B HNSCC cells (16) were a gift from Dr. Anjali Gupta (Department of Radiation Oncology, The University of Iowa). All HNSCC cell lines are EGFR positive and are sensitive to EGFR inhibitors. All cell lines were authenticated by the ATCC for viability (before freezing and after thawing), growth, morphology and isoenzymology. Cells were stored according to the supplier's instructions and used over a course of no more than 3 months after resuscitation of frozen aliquots. Cultures were maintained in 5% CO2 and air humidified in a 37° C. incubator.
(§2) Erlotinib (ERL; Tarceva) and anakinra (ANA; Kineret) were obtained from the inpatient pharmacy at the University of Iowa Hospitals and Clinics. Drugs were added to cells at final concentrations of 5 μM ERL and 10 ng/mL or 50 ng/mL ANA. Human IgG and […] (DMSO) were used as controls and were obtained from Sigma Aldrich. Human IL-1α, IL-1β, and IL-18Rα neutralizing antibodies were obtained from R&D Systems and were used at a concentration of 0.5 μg/mL. Recombinant human IL-1α was obtained from Life Technologies and administered at a concentration of 1 ng/mL. Ac-Y-VAD-cho, a caspase-1 inhibitor (CalBioChem), was suspended in DMSO and added at a concentration of […], a pan-caspase inhibitor (Promega) was diluted in DMSO and added at a concentration of 20 μM. TLR agonists were used at the following concentrations: Pam3CSK4 (200ng/mL), FSL-1 (100 ng/mL), Poly I:C (20 μg/mL), LPS (200 ng/mL), Flagellin (200 ng/mL), Gardiquimod (1 μg/mL), CL075 (1 μg/mL), and E. coli DNA (1 μg/mL). All TLR agonists were obtained from InvivoGen. The required volume of each drug was added directly to complete cell culture media on cells to achieve the indicated final concentrations.
(§3) Levels of IL-6, IL-1α and IL-1β of treated cells were determined by ELISA. The culture media of the treated cells were harvested and each cytokine was detected according to the manufacturer's protocol using the Human Quantikine ELISA Kits (R&D Systems, Minneapolis, Minn.).
as §1, with “(20)” for “(16)”
(§4) Erlotinib (ERL; Tarceva), anakinra (ANA; Kineret) and N-acetyl cysteine (NAC; Acetadote) were obtained from the inpatient pharmacy at the University of Iowa Hospitals and Clinics. Drugs were added to cells at final concentrations of 5 μM ERL, 10 ng/mL or 50 ng/mL ANA and 20 mM NAC. Human IgG and […] (DMSO) were used as controls and were obtained from Sigma Aldrich. Pegylated catalase (CAT; Sigma Aldrich) was used at a final concentration of 100 U/mL. Human IL-1α, IL-1β, and IL-18Ra neutralizing antibodies were obtained from R&D Systems and were used at a concentration of 0.5 μg/mL. Recombinant human IL-1α was obtained from Life Technologies and administered at a concentration of 1 ng/mL. Ac-Y-VAD-cho (CalBioChem) was suspended in DMSO and used at 5 μM. Z-VAD-fmk (Promega) was diluted in DMSO and used at 20 μM. TLR agonists were used at the following concentrations: Pam3CSK4 (200 ng/mL), FSL-1 (100 ng/mL), Poly I:C (20 μg/mL), LPS (200 ng/mL), Flagellin (200 ng/mL), Gardiquimod (1 μg/mL), CL075 (1 μg/mL), and E. coli DNA (1 μg/mL). All TLR agonists were obtained from InvivoGen. […]

SQ20B HNSCC cells [2] = assay: IL-1α release by ELISA in SQ20B cells; type: cell-based, human; details: agent 1 h then erlotinib 5 μM 48 h
Description: as §2, §3
(§5) Erlotinib (ERL; Tarceva), anakinra (ANA; Kineret) and N-acetyl cysteine (NAC; Acetadote) were obtained from the inpatient pharmacy at the University of Iowa Hospitals and Clinics. Drugs were added to cells at final concentrations of 5 μM ERL, 10 ng/mL or 50 ng/mL ANA and 20 mM NAC. Human IgG and […] (DMSO) were used as controls and were obtained from Sigma Aldrich. Pegylated catalase (CAT; Sigma Aldrich) was used at a final concentration of 100 U/mL. Human IL-1α, IL-1β, and IL-18Ra neutralizing antibodies were obtained from R&D Systems and were used at a concentration of 0.5 μg/mL. Recombinant human IL-1α was obtained from Life Technologies and administered at a concentration of 1 ng/mL. Ac-Y-VAD-cho (CalBioChem) was suspended in DMSO and used at 5 μM. Z-VAD-fmk (Promega) was diluted in DMSO and used at 20 μM. TLR agonists were used at the following concentrations: Pam3CSK4 (200 ng/mL), FSL-1 (100 ng/mL), Poly I:C (20 μg/mL), LPS (200 ng/mL), Flagellin (200 ng/mL), Gardiquimod (1 μg/mL), CL075 (1 μg/mL), and E. coli DNA (1 μg/mL). All TLR agonists were obtained from InvivoGen. The required volume of each drug was added directly to complete cell culture media on cells to achieve the indicated final concentrations.
(§6) Levels of IL-6, IL-1α and IL-1β of treated cells were determined by ELISA. The culture media of the treated cells were harvested and each cytokine was detected according to the manufacturer's protocol using Human Quantikine ELISA Kits (R&D Systems, Minneapolis, Minn.).

Cal-27 HNSCC cells [3] = assay: IL-6 secretion by ELISA in Cal-27 cells; type: cell-based, human; details: for erlotinib-induced IL-6: agent pre-treatment then erlotinib 5 μM 48 h; for baseline IL-6 (absence of erlotinib): agent 2 h (1 h for caspase inhibitors, NAC, CAT) then DMSO 48 h
From the text: as §1, §2, §3
as §1, with “(20)” for “(16)”
as §4

SQ20B and Cal27 cells = type: cell-based
Description: To determine whether cell death is responsible for IL-1α release, we used Z-VAD-fmk, a pan-caspase inhibitor, to prevent cell death. We also tested Ac-Y-VAD-cho, caspase-1 inhibitor, to assess inflammasome involvement. After testing various combinations of these inhibitors, we found an optimal concentration of 20 μM Z-VAD and 5μM Y-VAD. […] To confirm that the pan-caspase inhibitor was effectively blocking cell death, we performed a clonogenic assay with erlotinib- and Z-VAD-treated cells in SQ20B cells.

Cal-27 HNSCC cells [4] = assay: IL-1α release by ELISA in Cal-27 cells; type: cell-based, human; details: for erlotinib-induced IL-1α release: agent 1 h then erlotinib 5 μM 48 h
Description: as §2, §3, §5, §6

panitumumab
IL-6 expression/secretion in HNSCC cell lines treated with EGFRIs (HNSCC tumor cell lines): significant upregulation

CS(=O)(=O)CCNCc1ccc(-c2ccc3ncnc(Nc4ccc(OCc5cccc(F)c5)c(Cl)c4)c3c2)o1 [lapatinib]
IL-6 expression/secretion in HNSCC cell lines treated with EGFRIs (HNSCC tumor cell lines): significant upregulation

Ac-Y-VAD-cho
erlotinib-induced IL-6 (SQ20B HNSCC cells [1]): did not affect | erlotinib-induced IL-1α release (SQ20B HNSCC cells [2]): did not see a decrease; also recorded: not observed | erlotinib-induced IL-6 (Cal-27 HNSCC cells [3]): did not affect | highest dose that did not result in toxicity (optimal concentration) (SQ20B and Cal27 cells): 5 µM | baseline IL-1α levels (Cal-27 HNSCC cells [4]; agent 1 h then DMSO 48 h): not observed | erlotinib-induced IL-1α release (Cal-27 HNSCC cells [4]): did not see a decrease; also recorded: not observed

CC(=O)N[C@@H](CS)C(=O)O [NAC, N-acetyl cysteine]
erlotinib-induced IL-6 (SQ20B HNSCC cells [1]): significantly suppressed | erlotinib-induced IL-1α release (SQ20B HNSCC cells [2]): significantly suppressed | erlotinib-induced IL-6 (Cal-27 HNSCC cells [3]): significantly suppressed | erlotinib-induced IL-1α release (Cal-27 HNSCC cells [4]): significantly suppressed

anakinra
baseline IL-6 (absence of erlotinib) (SQ20B HNSCC cells [1]): significantly reduced | erlotinib-induced IL-6 (SQ20B HNSCC cells [1]): significantly reduced; also recorded: effectively blocked | erlotinib-induced IL-6 (SQ20B HNSCC cells [1]; listed as Anakinra): effectively blocked | baseline IL-6 (absence of erlotinib) (Cal-27 HNSCC cells [3]): significantly reduced | erlotinib-induced IL-6 (Cal-27 HNSCC cells [3]): significantly reduced; also recorded: effectively blocked | erlotinib-induced IL-6 (Cal-27 HNSCC cells [3]; listed as Anakinra): effectively blocked

B1: CAT: Pegylated catalase (Sigma Aldrich), antioxidant, 100 U/mL (protein, UniProt P00432 2-527, looked up)
Catalase: ADNRDPASDQMKHWKEQRAAQKPDVLTTGGGNPVGDKLNSLTVGPRGPLLVQDVVFTDEMAHFDRERIPERVVHAKGAGAFGYFEVTHDITRYSKAKVFEHIGKRTPIAVRFSTVAGESGSADTVRDPRGFAVKFYTEDGNWDLVGNNTPIFFIRDALLFPSFIHSQKRNPQTHLKDPDMVWDFWSLRPESLHQVSFLFSDRGIPDGHRHMNGYGSHTFKLVNANGEAVYCKFHYKTDQGIKNLSVEDAARLAHEDPDYGLRDLFNAIATGNYPSWTLYIQVMTFSEAEIFPFNPFDLTKVWPHGDYPLIPVGKLVLNRNPVNYFAEVEQLAFDPSNMPPGIEPSPDKMLQGRLFAYPDTHRHRLGPNYLQIPVNCPYRARVANYQRDGPMCMMDNQGGAPNYYPNSFSAPEHQPSALEHRTHFSGDVQRFNSANDDNVTQVRTFYLKVLNEEQRKRLCENIAGHLKDAQLFIQKKAVKNFSDVHPEYGSRIQALLDKYNEEKPKNAVHTYVQHGSHLSAREKANL
modifications: PEG
notes: Pegylated catalase (Sigma Aldrich), antioxidant, 100 U/mL
erlotinib-induced IL-6 (SQ20B HNSCC cells [1]): significantly suppressed | erlotinib-induced IL-1α release (SQ20B HNSCC cells [2]): significantly suppressed | erlotinib-induced IL-6 (Cal-27 HNSCC cells [3]): significantly suppressed | erlotinib-induced IL-1α release (Cal-27 HNSCC cells [4]): significantly suppressed

B2: Exogenous IL-1α: Recombinant human IL-1α from Life Technologies, 1 ng/mL (protein, UniProt P01583 113-271, looked up)
Interleukin-1 alpha: SAPFSFLSNVKYNFMRIIKYEFILNDALNQSIIRANDQYLTAAALHNLDEAVKFDMGAYKSSKDDAKITVILRISKTQLYVTAQDEDQPVLLKEMPEIPKTITGSETNLLFFWETHGTKNYFTSVAHPNLFIATKQDYWVCLAGGPPSITDFQILENQA
baseline IL-6 (absence of erlotinib) (SQ20B HNSCC cells [1]): increased | erlotinib-induced IL-6 (SQ20B HNSCC cells [1]): increased | baseline IL-6 (absence of erlotinib) (Cal-27 HNSCC cells [3]): increased | erlotinib-induced IL-6 (Cal-27 HNSCC cells [3]): increased
